According to ChEMBL document CHEMBL3792312, “Synthesis and docking studies of pyrazine-thiazolidinone hybrid scaffold targeting dormant tuberculosis” (Bioorg Med Chem Lett, 2016):
Values after ≈ are worked out from the molar mass of the structure shown.

Key:
[1] = system: Mycobacterium tuberculosis; assay: Antitubercular activity against dormant Mycobacterium bovis BCG after at 10 ug 12 days by nitrate reductase assay; assay type: functional, variant bovis BCG
[2] = system: Mycobacterium tuberculosis; assay: Antitubercular activity against dormant Mycobacterium bovis BCG after at 3 ug 12 days by nitrate reductase assay; assay type: functional, variant bovis BCG
[3] = system: Mycobacterium tuberculosis; assay: Antitubercular activity against dormant Mycobacterium bovis BCG after at 30 ug 12 days by nitrate reductase assay; assay type: functional, variant bovis BCG
[4] = system: Mycobacterium tuberculosis; assay: Antitubercular activity against dormant Mycobacterium bovis BCG after 12 days by nitrate reductase assay; assay type: functional, organism-based; details: variant bovis BCG, 288 h

| SMILES | inhibition (INH) [1] [%] | inhibition (INH) [2] [%] | inhibition (INH) [3] [%] | IC50 [4] [µg/mL] | MIC [4] [µg/mL] |
| --- | --- | --- | --- | --- | --- |
| Nc1nccnc1C(=O)NN1C(=O)CS[C@H]1c1ccc([N+](=O)[O-])cc1 | 34.04 | 45.89 | 96.67 |  |  |
| Cc1cnc(C(=O)NN2C(=O)CS[C@H]2c2ccc(N(C)C)cc2)cn1 | 75.69 | 30.06 | 92.16 | 21.8 (≈ 61 µM) | 29.4 (≈ 82.3 µM) |
| Nc1nccnc1C(=O)NN1C(=O)CSC1c1ccc(Cl)cc1Cl (stereo not drawn) | 27.48 | 22.55 | 56.5348 |  |  |
| Nc1nccnc1C(=O)NN1C(=O)CSC1c1cccc([N+](=O)[O-])c1 (stereo not drawn) | 38.85 | 47.21 | 64.92 |  |  |
| Nc1nccnc1C(=O)NN1C(=O)CSC1c1ccccc1 (stereo not drawn) | 30.74 | 11.98 | 97.97 | 12.9 (≈ 40.9 µM) | 24.4 (≈ 77.4 µM) |
| O=C(NN1C(=O)CS[C@@H]1c1ccc(Cl)cc1)c1cnccn1 | 91.85 | 43.58 | 96.24 | 3.26 (≈ 9.74 µM) | 8.48 (≈ 25.3 µM) |
| CN(C)c1ccc(C2SCC(=O)N2NC(=O)c2nccnc2N)cc1 (stereo not drawn) | 44.99 | 26.9022 | 32.8615 |  |  |
| O=C(NN1C(=O)CSC1c1ccc(O)cc1)c1cnccn1 (stereo not drawn) | 16.47 | 9.989 | 54.42 |  |  |
| Nc1nccnc1C(=O)NN1C(=O)CSC1c1ccc(F)cc1 (stereo not drawn) | 26.63 | 12.4938 | 63.72 |  |  |
| Nc1nccnc1C(=O)NN1C(=O)CSC1c1ccc(Cl)cc1 (stereo not drawn) | 46.72 | 22.09 | 76.11 |  |  |
| Nc1nccnc1C(=O)NN1C(=O)CSC1c1ccc(O)cc1 (stereo not drawn) | 45.87 | 14.76 | 82.99 |  |  |
| Cc1cnc(C(=O)NN2C(=O)CSC2c2ccc(O)cc2)cn1 (stereo not drawn) | -17.5884 | -7.23 | 77.54 |  |  |
| CCOc1cc([C@@H]2SCC(=O)N2NC(=O)c2cnc(C)cn2)ccc1O | 34.91 | -10.8481 | 97.31 | 9.46 (≈ 25.3 µM) | 15.9 (≈ 42.5 µM) |
| O=C(NN1C(=O)CS[C@@H]1c1ccc([N+](=O)[O-])cc1)c1cnccn1 | 92.72 | 24.09 | 98.6 | 4.93 (≈ 14.3 µM) | 9.38 (≈ 27.2 µM) |
| COc1ccc(C2SCC(=O)N2NC(=O)c2cnc(C)cn2)cc1OC (stereo not drawn) | 14.41 | -15.2185 | 96.436 |  |  |
| Cc1cnc(C(=O)NN2C(=O)CSC2c2ccccc2)cn1 (stereo not drawn) | -6.383 | 34.12 | 96.6 |  |  |
| COc1cc([C@@H]2SCC(=O)N2NC(=O)c2cnc(C)cn2)ccc1O | 81.1965 | 3.203 | 98.03 | 5.1 (≈ 14.2 µM) | 12.2 (≈ 34 µM) |
| COc1ccc(C2SCC(=O)N2NC(=O)c2cnc(C)cn2)cc1 (stereo not drawn) | 66.73 | -16.0935 | 88.13 |  |  |
| COc1ccc([C@H]2SCC(=O)N2NC(=O)c2nccnc2N)cc1OC | 25.35 | 3.112 | 94.4 | 23.4 (≈ 62.5 µM) | 29.2 (≈ 77.9 µM) |
| Cc1cnc(C(=O)NN2C(=O)CS[C@@H]2c2cccc([N+](=O)[O-])c2)cn1 | 88.47 | 10.69 | 96.43 | 9.89 (≈ 27.5 µM) | 18.5 (≈ 51.5 µM) |
| Cc1cnc(C(=O)NN2C(=O)CSC2c2ccc(Cl)cc2)cn1 (stereo not drawn) | 48.01 | 44.18 | 61.87 |  |  |
| Cc1cnc(C(=O)NN2C(=O)CS[C@@H]2c2ccc([N+](=O)[O-])cc2)cn1 | 56.74 | -13.1407 | 97.76 | 23.4 (≈ 65.3 µM) | 28.8 (≈ 80.1 µM) |
| CCOc1cc([C@H]2SCC(=O)N2NC(=O)c2nccnc2N)ccc1O | 23.79 | 30.79 | 97.5903 | 23.4 (≈ 62.4 µM) | 29.4 (≈ 78.4 µM) |
| NNC(=O)c1ccncc1 [ISONIAZID] |  |  |  |  | 0.045 (≈ 0.328 µM) |
| NC(=O)c1cnccn1 [PYRAZINAMIDE] |  |  |  |  | > 100 |
| CO[C@H]1/C=C/O[C@@]2(C)Oc3c(C)c(O)c4c(O)c(c(/C=N/N5CCN(C)CC5)c(O)c4c3C2=O)NC(=O)/C(C)=C\C=C\[C@H](C)[C@H](O)[C@@H](C)[C@@H](O)[C@@H](C)[C@H](OC(C)=O)[C@@H]1C [RIFAMPIN] |  |  |  | 0.004 (≈ 0.00486 µM) | 0.04 (≈ 0.0486 µM) |
